{"source": "patent US11666594B2", "about": "“Antibody-drug conjugates comprising a cyclic dinucleotide” (TAKEDA PHARMACEUTICAL COMPANY LIMITED, priority 2016, dated 2023)", "system": "IRF3 phosphorylation in FaDu cell", "test": "Phosphorylated IRF3 protein detection in FaDu cell", "type": "cell-based, human", "settings": "at 30 μM; 6 hr; 2′,3′-cGAMP 30 μM = 100%", "description": "Human larynx cancer cell line FaDu cell (ATCC) was seeded, the medium was replaced with serum free medium one day after the seeding. After the replacement, the cell was cultured for one day, and to the cell were added the natural ligand 2′,3′-cGAMP (the final concentration; 30 μM) and test compound (the final concentration; 15 μM or 30 μM). 6 hr after the addition, the cell was washed with PBS, the cell extract was prepared, and the phosphorylated IRF3 protein was detected by ELISA method or Western blotting method. The IRF3 protein phosphorylation activity of the test compound was calculated when the value in the sample with adding the natural ligand 2′,3′-cGAMP at the final concentration of 30 μM was considered as 100%.", "note": "Counter-ions that a name gives are not always drawn.", "data": [{"smiles": "Nc1ncnc2c1ncn2[C@@H]1O[C@@H]2COP(=O)(O)O[C@@H]3[C@H](O)[C@@H](COP(=O)(S)O[C@H]2[C@H]1F)O[C@H]3n1cc(F)c2c(=O)[nH]cnc21", "note": "(stereo partly drawn) [Example 2, 7-((5R,7R,8R,12aR,14R,15R,15aR,16R)-14-(6-amino-9H-purin-9-yl)-15-fluoro-10,16-dihydroxy-2,10-dioxido-2-sulfanyloctahydro-12H-5,8-methanofuro[3,2-1][1,3,6,9,11,2,10]pentaoxadiphosphacyclotetradecin-7-yl)-5-fluoro-3,7-dihydro-4H-pyrrolo[2,3-d]pyrimidin-4-one di-triethylamine salt (Optical Isomer)]", "values": [{"measurement": "activity level of test compound (IRF3 protein phosphorylation)", "result": 88.7, "unit": "% at 30 μM"}]}]}
